Laboratory results taken from publication PMC5218480 (PLoS ONE, 2017).

Test system: MV-4-11 cells
Experiment: Gene expression microarray analysis (Affymetrix PrimeView) and GSEA
Assay type: cell-based, human
Design: RFU PODN (11730768_x_at) / Fold change /veh PODN (11730768_x_at) / RFU LINC00158 (11744669_a_at) / Fold change /veh LINC00158 (11744669_a_at) / RFU DUSP10 (11751237_a_at) / Fold change /veh DUSP10 (11751237_a_at) / RFU ID3 (11757404_x_at) / Fold change /veh ID3 (11757404_x_at) / RFU PLEKHG5 (11737974_s_at) / Fold change /veh PLEKHG5 (11737974_s_at) / RFU LRRC4B (11730491_at) / Fold change /veh LRRC4B (11730491_at) / RFU GIMAP4 (11747438_a_at) / Fold change /veh GIMAP4 (11747438_a_at) / RFU KRT8 (11758183_x_at) / Fold change /veh KRT8 (11758183_x_at) / RFU CNN1 (11734310_a_at) / Fold change /veh CNN1 (11734310_a_at) / RFU VPS37D (11726825_at) / Fold change /veh VPS37D (11726825_at) / RFU C10orf10 (11716522_x_at) / Fold change /veh C10orf10 (11716522_x_at) / RFU KIR2DL2 /// KIR2DL4 /// KIR2DL5A /// KIR2DL5B /// KIR2DS1 /// KIR2DS2 /// KIR2DS3 /// KIR2DS4 /// KIR3DL3 /// KIR3DL3 /// KIR3DS1 (11738374_at) / Fold change /veh KIR2DL2 /// KIR2DL4 /// KIR2DL5A /// KIR2DL5B /// KIR2DS1 /// KIR2DS2 /// KIR2DS3 /// KIR2DS4 /// KIR3DL3 /// KIR3DL3 /// KIR3DS1 (11738374_at) / RFU C1QL1 (11718748_at) / Fold change /veh C1QL1 (11718748_at) / RFU TMPRSS4 (11747572_a_at) / Fold change /veh TMPRSS4 (11747572_a_at) / RFU HAMP (11756126_x_at) / Fold change /veh HAMP (11756126_x_at) / RFU RNFT2 (11725882_a_at) / Fold change /veh RNFT2 (11725882_a_at) / RFU NR4A2 (11747474_a_at) / Fold change /veh NR4A2 (11747474_a_at) / RFU ABCC12 (11746883_a_at) / Fold change /veh ABCC12 (11746883_a_at) / RFU TMEM136 (11760407_x_at) / Fold change /veh TMEM136 (11760407_x_at) / RFU CLDN22 /// WWC2 (11732394_at) / Fold change /veh CLDN22 /// WWC2 (11732394_at) / RFU HLA-DPB1 (11760878_x_at) / Fold change /veh HLA-DPB1 (11760878_x_at) / RFU SPINT1 (11716480_a_at) / Fold change /veh SPINT1 (11716480_a_at) / RFU GAP43 (11754022_s_at) / Fold change /veh GAP43 (11754022_s_at) / RFU A4GNT (11735810_at) / Fold change /veh A4GNT (11735810_at) / RFU PRB3 (11715151_x_at) / Fold change /veh PRB3 (11715151_x_at) / RFU TUBB4B (11761932_at) / Fold change /veh TUBB4B (11761932_at) / RFU CAPN14 (11732068_a_at) / Fold change /veh CAPN14 (11732068_a_at) / RFU TMCC2 (11721928_a_at) / Fold change /veh TMCC2 (11721928_a_at) / RFU IRGQ (11745062_a_at) / Fold change /veh IRGQ (11745062_a_at) / RFU FAM174B (11720279_a_at) / Fold change /veh FAM174B (11720279_a_at) / RFU TMPRSS4 (11748680_a_at) / Fold change /veh TMPRSS4 (11748680_a_at) / RFU FAM212B (11763350_a_at) / Fold change /veh FAM212B (11763350_a_at) / RFU PLEKHG5 (11743358_a_at) / Fold change /veh PLEKHG5 (11743358_a_at) / RFU ZSCAN30 (11745921_a_at) / Fold change /veh ZSCAN30 (11745921_a_at) / RFU CMKLR1 (11741424_a_at) / Fold change /veh CMKLR1 (11741424_a_at) / RFU LOC101060620 /// MAPK8IP1 (11723275_at) / Fold change /veh LOC101060620 /// MAPK8IP1 (11723275_at) / RFU SPTSSB (11747773_x_at) / Fold change /veh SPTSSB (11747773_x_at) / RFU PRSS12 (11739890_at) / Fold change /veh PRSS12 (11739890_at) / RFU BIN1 (11741810_x_at) / Fold change /veh BIN1 (11741810_x_at) / RFU WNT11 (11732464_a_at) / Fold change /veh WNT11 (11732464_a_at) / RFU C10orf10 (11716521_a_at) / Fold change /veh C10orf10 (11716521_a_at) / RFU C5orf56 (11738089_at) / Fold change /veh C5orf56 (11738089_at) / RFU CYB561 (11721691_x_at) / Fold change /veh CYB561 (11721691_x_at) / RFU ANKRD19P (11752326_a_at) / Fold change /veh ANKRD19P (11752326_a_at) / RFU OR2T12 /// OR2T33 /// OR2T8 (11738714_s_at) / Fold change /veh OR2T12 /// OR2T33 /// OR2T8 (11738714_s_at) / RFU VCAN (11748164_a_at) / Fold change /veh VCAN (11748164_a_at) / RFU JSRP1 (11732532_at) / Fold change /veh JSRP1 (11732532_at) / RFU KRTAP10-11 (11738290_x_at) / Fold change /veh KRTAP10-11 (11738290_x_at) / RFU MYO3A (11730013_a_at) / Fold change /veh MYO3A (11730013_a_at) / RFU EBF3 (11725865_a_at) / Fold change /veh EBF3 (11725865_a_at) / RFU CAMK2N1 (11719241_x_at) / Fold change /veh CAMK2N1 (11719241_x_at) / RFU C5orf56 (11738088_a_at) / Fold change /veh C5orf56 (11738088_a_at) / RFU OLFML3 (11715873_a_at) / Fold change /veh OLFML3 (11715873_a_at) / RFU LOC100653217 /// NTM (11731650_a_at) / Fold change /veh LOC100653217 /// NTM (11731650_a_at) / RFU MAPK11 (11762145_a_at) / Fold change /veh MAPK11 (11762145_a_at) / RFU FIZ1 (11724087_x_at) / Fold change /veh FIZ1 (11724087_x_at) / RFU OASL (11726364_x_at) / Fold change /veh OASL (11726364_x_at) / RFU SOX15 (11748057_x_at) / Fold change /veh SOX15 (11748057_x_at) / RFU CD79A (11719716_a_at) / Fold change /veh CD79A (11719716_a_at) / RFU HIST1H1D (11736915_at) / Fold change /veh HIST1H1D (11736915_at) / RFU CASKIN2 (11723855_a_at) / Fold change /veh CASKIN2 (11723855_a_at) / RFU LOC730098 (11760151_x_at) / Fold change /veh LOC730098 (11760151_x_at) / RFU OR4N2 (11742367_at) / Fold change /veh OR4N2 (11742367_at) / RFU PRRT2 (11749266_a_at) / Fold change /veh PRRT2 (11749266_a_at) / RFU SNX32 (11753110_a_at) / Fold change /veh SNX32 (11753110_a_at) / RFU CDHR5 (11726645_a_at) / Fold change /veh CDHR5 (11726645_a_at) / RFU RCAN1 (11760418_a_at) / Fold change /veh RCAN1 (11760418_a_at) / RFU FAM167A (11723789_a_at) / Fold change /veh FAM167A (11723789_a_at) / RFU FAM26E (11764081_at) / Fold change /veh FAM26E (11764081_at) / RFU ISYNA1 (11749810_s_at) / Fold change /veh ISYNA1 (11749810_s_at) / RFU ACY1 (11761880_at) / Fold change /veh ACY1 (11761880_at) / RFU 11764098_at / Fold change /veh 11764098_at / RFU SAMD14 (11745864_x_at) / Fold change /veh SAMD14 (11745864_x_at) / RFU NPB (11741838_a_at) / Fold change /veh NPB (11741838_a_at) / RFU TMPRSS6 (11731388_a_at) / Fold change /veh TMPRSS6 (11731388_a_at) / RFU KRTAP10-2 (11738614_at) / Fold change /veh KRTAP10-2 (11738614_at) / RFU ARHGAP8 /// PRR5-ARHGAP8 (11727945_x_at) / Fold change /veh ARHGAP8 /// PRR5-ARHGAP8 (11727945_x_at) / RFU KRTAP5-7 /// NADSYN1 (11734609_at) / Fold change /veh KRTAP5-7 /// NADSYN1 (11734609_at) / RFU RASL12 (11751679_a_at) / Fold change /veh RASL12 (11751679_a_at) / RFU CDKN2B (11736163_a_at) / Fold change /veh CDKN2B (11736163_a_at) / RFU PRF1 (11729649_at) / Fold change /veh PRF1 (11729649_at) / RFU, ZNF638 /// ZNF638-IT1 / Fold change vs veh, ZNF638 /// ZNF638-IT1 / RFU, PANK3 / Fold change vs veh, PANK3 / RFU, SH3YL1 / Fold change vs veh, SH3YL1 / RFU, ZEB2 / Fold change vs veh, ZEB2 / RFU, NRIP1 / Fold change vs veh, NRIP1 / RFU, PTTG1IP / Fold change vs veh, PTTG1IP / RFU, CAPN2 / Fold change vs veh, CAPN2 / RFU, MED14 / Fold change vs veh, MED14 / RFU, SNORA58 / Fold change vs veh, SNORA58 / RFU, C1orf63 / Fold change vs veh, C1orf63 / RFU, LRRFIP1 / Fold change vs veh, LRRFIP1 / RFU, NDUFAF7 / Fold change vs veh, NDUFAF7 / RFU, SLC12A2 / Fold change vs veh, SLC12A2 / RFU, IBTK / Fold change vs veh, IBTK / RFU, ESF1 / Fold change vs veh, ESF1 / Fold change vs veh, TMEM50B / RFU, TAOK1 / Fold change vs veh, TAOK1 / RFU, ACBD3 / Fold change vs veh, ACBD3 / RFU, TMA16 / Fold change vs veh, TMA16 / RFU, RWDD3 / Fold change vs veh, RWDD3 / RFU, BCAT1 / Fold change vs veh, BCAT1 / RFU, EDEM3 / Fold change vs veh, EDEM3 / RFU, TMEM33 / Fold change vs veh, TMEM33 / RFU, WDR75 / Fold change vs veh, WDR75 / RFU, AHCTF1 / Fold change vs veh, AHCTF1 / RFU, TFRC / Fold change vs veh, TFRC / RFU, ZDHHC17 / Fold change vs veh, ZDHHC17 / RFU, NOM1 / Fold change vs veh, NOM1 / RFU, ARL8B / Fold change vs veh, ARL8B / RFU, ZBTB11 / Fold change vs veh, ZBTB11 / RFU, TAMM41 / Fold change vs veh, TAMM41 / RFU, KIAA1704 /// LOC100996395 / Fold change vs veh, KIAA1704 /// LOC100996395 / RFU, ING1 / Fold change vs veh, ING1 / RFU, TRMT61B / Fold change vs veh, TRMT61B / RFU, FUBP3 / Fold change vs veh, FUBP3 / RFU, TP53 / Fold change vs veh, TP53 / RFU, TNKS2 / Fold change vs veh, TNKS2 / RFU, ZFP14 / Fold change vs veh, ZFP14 / RFU, ACTR2 / Fold change vs veh, ACTR2 / RFU, PPP3R1 / Fold change vs veh, PPP3R1 / RFU, PIK3R1 / Fold change vs veh, PIK3R1 / RFU, HNRNPA1 / Fold change vs veh, HNRNPA1 / RFU, RNF170 / Fold change vs veh, RNF170 / RFU, ZNF28 / Fold change vs veh, ZNF28 / RFU, RNGTT / Fold change vs veh, RNGTT / RFU, OGT / Fold change vs veh, OGT / RFU, BRD1 / Fold change vs veh, BRD1 / RFU, MARS / Fold change vs veh, MARS / RFU, ZNF655 / Fold change vs veh, ZNF655 / RFU, FAHD1 / Fold change vs veh, FAHD1 / RFU, BDP1 / Fold change vs veh, BDP1 / RFU, LRRCC1 / Fold change vs veh, LRRCC1 / RFU, ARID1A / Fold change vs veh, ARID1A / RFU, ZNF146 / Fold change vs veh, ZNF146 / RFU, ZNF330 / Fold change vs veh, ZNF330 / RFU, GPN3 / Fold change vs veh, GPN3 / RFU, C9orf123 / Fold change vs veh, C9orf123 / RFU, N4BP2L2 / Fold change vs veh, N4BP2L2 / RFU, ARFIP1 / Fold change vs veh, ARFIP1 / RFU, FAM179B / Fold change vs veh, FAM179B / RFU, BCL10 / Fold change vs veh, BCL10 / RFU, UHRF1BP1L / Fold change vs veh, UHRF1BP1L / RFU, BET1 / Fold change vs veh, BET1 / RFU, CNOT2 / Fold change vs veh, CNOT2 / RFU, ZNF268 / Fold change vs veh, ZNF268 / Fold change vs veh, ZNF507 / RFU, DGCR2 / Fold change vs veh, DGCR2 / RFU, WDSUB1 / Fold change vs veh, WDSUB1 / Fold change vs veh, HSP90B1 /// MIR3652 / RFU, ADSS / Fold change vs veh, ADSS / RFU, GK / Fold change vs veh, GK / RFU, ZNF148 / Fold change vs veh, ZNF148 / RFU, TAF9 / Fold change vs veh, TAF9 / RFU, SLC1A5 / Fold change vs veh, SLC1A5 / RFU, SLMO2 / Fold change vs veh, SLMO2 / RFU, ABCC4 / Fold change vs veh, ABCC4 / RFU, LOC101060439 /// RAP1B / Fold change vs veh, LOC101060439 /// RAP1B / RFU, RFX7 / Fold change vs veh, RFX7 / RFU, GTPBP10 / Fold change vs veh, GTPBP10 / RFU, CNEP1R1 / Fold change vs veh, CNEP1R1 / RFU, BIVM-ERCC5 /// ERCC5 / Fold change vs veh, BIVM-ERCC5 /// ERCC5 / RFU, ILF3 / Fold change vs veh, ILF3 / RFU 11762660_at / Fold change /veh 11762660_at / RFU VCAN (11757783_s_at) / Fold change /veh VCAN (11757783_s_at) / RFU DDX43 (11728927_at) / Fold change /veh DDX43 (11728927_at) / RFU KRT8 (11758188_x_at) / Fold change /veh KRT8 (11758188_x_at) / RFU NKD1 (11759106_at) / Fold change /veh NKD1 (11759106_at) / RFU SRD5A1 (11742802_a_at) / Fold change /veh SRD5A1 (11742802_a_at) / RFU TPSAB1 /// TPSB2 (11721975_s_at) / Fold change /veh TPSAB1 /// TPSB2 (11721975_s_at) / RFU GSTM3 (11746129_a_at) / Fold change /veh GSTM3 (11746129_a_at) / RFU IL23R (11737362_x_at) / Fold change /veh IL23R (11737362_x_at) / RFU TMEM51 (11727254_a_at) / Fold change /veh TMEM51 (11727254_a_at) / RFU PIWIL2 (11732686_x_at) / Fold change /veh PIWIL2 (11732686_x_at) / RFU ORM1 (11744905_x_at) / Fold change /veh ORM1 (11744905_x_at) / RFU CCDC152 (11743942_at) / Fold change /veh CCDC152 (11743942_at) / RFU ECM1 (11717891_a_at) / Fold change /veh ECM1 (11717891_a_at) / RFU IL23R (11748794_a_at) / Fold change /veh IL23R (11748794_a_at) / RFU TNFAIP8L3 (11732012_x_at) / Fold change /veh TNFAIP8L3 (11732012_x_at) / RFU MBOAT4 (11741988_at) / Fold change /veh MBOAT4 (11741988_at) / RFU 11764193_at / Fold change /veh 11764193_at / RFU TMEM53 (11763286_at) / Fold change /veh TMEM53 (11763286_at) / RFU MAGEB2 (11727129_at) / Fold change /veh MAGEB2 (11727129_at) / RFU TMEM200A (11744735_a_at) / Fold change /veh TMEM200A (11744735_a_at) / RFU CCDC152 (11751479_a_at) / Fold change /veh CCDC152 (11751479_a_at) / RFU FAM211A (11726209_a_at) / Fold change /veh FAM211A (11726209_a_at) / RFU RGS16 (11746705_a_at) / Fold change /veh RGS16 (11746705_a_at) / RFU VCAN (11755009_s_at) / Fold change /veh VCAN (11755009_s_at) / RFU RHOB (11743442_s_at) / Fold change /veh RHOB (11743442_s_at) / RFU RGS16 (11720943_a_at) / Fold change /veh RGS16 (11720943_a_at) / RFU RGS16 (11720944_at) / Fold change /veh RGS16 (11720944_at) / RFU, VPS4B / Fold change vs veh, VPS4B / RFU, CREB1 / Fold change vs veh, CREB1 / RFU, DNAJC13 / Fold change vs veh, DNAJC13 / RFU, GNAQ / Fold change vs veh, GNAQ / RFU, CDK5R1 / Fold change vs veh, CDK5R1 / RFU, ZRANB3 / Fold change vs veh, ZRANB3 / RFU, CUL4A / Fold change vs veh, CUL4A / RFU, CCNY / Fold change vs veh, CCNY / RFU, UFL1 / Fold change vs veh, UFL1 / RFU, COG3 / Fold change vs veh, COG3 / RFU, DIAPH2 / Fold change vs veh, DIAPH2 / RFU, SKA2 / Fold change vs veh, SKA2 / RFU, AFF3 / Fold change vs veh, AFF3 / RFU, LMF1 / Fold change vs veh, LMF1 / RFU, IPO11 / Fold change vs veh, IPO11 / RFU, DFFB / Fold change vs veh, DFFB / RFU, FOXP1 / Fold change vs veh, FOXP1 / RFU, CARD8 / Fold change vs veh, CARD8 / RFU, STRN3 / Fold change vs veh, STRN3 / RFU, ADK / Fold change vs veh, ADK / RFU, RASSF2 / Fold change vs veh, RASSF2 / RFU, WIPF1 / Fold change vs veh, WIPF1 / RFU, LARP1B / Fold change vs veh, LARP1B / RFU, RASA1 / Fold change vs veh, RASA1 / RFU, RB1 / Fold change vs veh, RB1 / RFU, PPFIA1 / Fold change vs veh, PPFIA1 / RFU, MAT2A / Fold change vs veh, MAT2A / RFU, CCT5 / Fold change vs veh, CCT5 / RFU, WDR92 / Fold change vs veh, WDR92 / RFU, CUX1 / Fold change vs veh, CUX1 / RFU, TTC7A / Fold change vs veh, TTC7A / RFU, TMEM135 / Fold change vs veh, TMEM135 / RFU, DEPTOR / Fold change vs veh, DEPTOR / RFU, CPM / Fold change vs veh, CPM / RFU, DNAJB6 / Fold change vs veh, DNAJB6 / RFU, CACNA2D3 / Fold change vs veh, CACNA2D3 / RFU, DTX4 / Fold change vs veh, DTX4 / RFU, TFCP2 / Fold change vs veh, TFCP2 / RFU, GMCL1 /// GMCL1P1 / Fold change vs veh, GMCL1 /// GMCL1P1 / RFU, AEBP2 / Fold change vs veh, AEBP2 / RFU, SNHG1 /// SNORD22 /// SNORD25 /// SNORD26 /// SNORD27 /// SNORD28 /// SNORD29 /// SNORD31 / Fold change vs veh, SNHG1 /// SNORD22 /// SNORD25 /// SNORD26 /// SNORD27 /// SNORD28 /// SNORD29 /// SNORD31 / Fold change (Aza/veh), C12orf56 (ProbeSet 11735607_a_at) / Fold change (ACY-1035/veh), C12orf56 (ProbeSet 11735607_a_at) / Fold change (Aza/veh), FGFR1OP (ProbeSet 11751329_s_at) / Fold change (ACY-1035/veh), FGFR1OP (ProbeSet 11751329_s_at) / Fold change (Aza/veh), VPS36 (ProbeSet 11739960_a_at) / Fold change (ACY-1035/veh), VPS36 (ProbeSet 11739960_a_at) / RFU SYPL1 (11715823_x_at) / Fold change /veh SYPL1 (11715823_x_at) / RFU IGFBP7 (11715501_s_at) / Fold change /veh IGFBP7 (11715501_s_at) / RFU REEP3 (11722064_at) / Fold change /veh REEP3 (11722064_at) / RFU IGLL1 (11728026_x_at) / Fold change /veh IGLL1 (11728026_x_at): dose or concentration left out as unconfirmed
Conditions: MV-4-11 cells, 48 hours

Nc1ccc(-c2cccs2)cc1NC(=O)c1ccc2c(c1)cc(C1CC1)n2CCN1CCOCC1 [ACY-1035]
Fold change /veh LOC101060620 /// MAPK8IP1 (11723275_at): 0.98
